In patent publication US11306079B2, “3-(5-amino-pyrazin-2-yl)-benzenesulfonamide derivatives and related compounds as PI3K-gamma kinase inhibitors” (Incyte Corporation, priority 2017, dated 2022):
Structures can show the parent of a compound that is named as a salt.

Tests used:
[1] = target: PI3Kδ (p110δ/p85α) Recombinant Human Protein (Homo sapiens (Human), UniProt O00329); experiment: PI3Kδ Scintillation Proximity Assay; type: biochemical; conditions: 20 μM PIP2, 2 μM ATP, 3.4 nM PI3Kδ, 120 min, room temperature
Sequence of PI3Kδ (p110δ/p85α) Recombinant Human Protein (O00329 whole entry): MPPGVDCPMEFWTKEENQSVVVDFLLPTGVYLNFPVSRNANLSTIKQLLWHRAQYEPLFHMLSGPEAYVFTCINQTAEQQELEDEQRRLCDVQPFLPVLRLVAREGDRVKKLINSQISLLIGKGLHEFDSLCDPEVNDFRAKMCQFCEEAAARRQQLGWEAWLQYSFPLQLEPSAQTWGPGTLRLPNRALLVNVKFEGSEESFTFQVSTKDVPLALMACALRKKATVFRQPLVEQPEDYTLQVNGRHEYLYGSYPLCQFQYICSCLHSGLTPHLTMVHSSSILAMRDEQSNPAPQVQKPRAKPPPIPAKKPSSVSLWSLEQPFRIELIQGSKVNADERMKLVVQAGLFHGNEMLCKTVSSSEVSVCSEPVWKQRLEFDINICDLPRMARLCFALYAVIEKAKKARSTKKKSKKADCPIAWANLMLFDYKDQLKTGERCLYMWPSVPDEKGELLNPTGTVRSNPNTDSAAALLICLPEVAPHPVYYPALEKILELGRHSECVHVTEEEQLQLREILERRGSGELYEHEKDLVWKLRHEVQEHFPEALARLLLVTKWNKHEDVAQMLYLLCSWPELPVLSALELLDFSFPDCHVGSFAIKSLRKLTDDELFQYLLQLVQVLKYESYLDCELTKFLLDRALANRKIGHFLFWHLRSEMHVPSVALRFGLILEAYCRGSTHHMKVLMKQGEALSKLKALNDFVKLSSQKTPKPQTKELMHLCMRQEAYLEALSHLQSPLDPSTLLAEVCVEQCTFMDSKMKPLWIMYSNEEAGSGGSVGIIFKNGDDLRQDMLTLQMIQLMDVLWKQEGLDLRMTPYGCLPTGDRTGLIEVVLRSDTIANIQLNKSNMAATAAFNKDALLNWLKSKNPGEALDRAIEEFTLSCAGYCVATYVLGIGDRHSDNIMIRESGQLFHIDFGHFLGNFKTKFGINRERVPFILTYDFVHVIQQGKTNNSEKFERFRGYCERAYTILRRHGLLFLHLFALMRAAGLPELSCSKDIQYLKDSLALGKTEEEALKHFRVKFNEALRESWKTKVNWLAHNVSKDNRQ
Sequence of PI3Kδ (p110δ/p85α) Recombinant Human Protein (P27986 whole entry partner): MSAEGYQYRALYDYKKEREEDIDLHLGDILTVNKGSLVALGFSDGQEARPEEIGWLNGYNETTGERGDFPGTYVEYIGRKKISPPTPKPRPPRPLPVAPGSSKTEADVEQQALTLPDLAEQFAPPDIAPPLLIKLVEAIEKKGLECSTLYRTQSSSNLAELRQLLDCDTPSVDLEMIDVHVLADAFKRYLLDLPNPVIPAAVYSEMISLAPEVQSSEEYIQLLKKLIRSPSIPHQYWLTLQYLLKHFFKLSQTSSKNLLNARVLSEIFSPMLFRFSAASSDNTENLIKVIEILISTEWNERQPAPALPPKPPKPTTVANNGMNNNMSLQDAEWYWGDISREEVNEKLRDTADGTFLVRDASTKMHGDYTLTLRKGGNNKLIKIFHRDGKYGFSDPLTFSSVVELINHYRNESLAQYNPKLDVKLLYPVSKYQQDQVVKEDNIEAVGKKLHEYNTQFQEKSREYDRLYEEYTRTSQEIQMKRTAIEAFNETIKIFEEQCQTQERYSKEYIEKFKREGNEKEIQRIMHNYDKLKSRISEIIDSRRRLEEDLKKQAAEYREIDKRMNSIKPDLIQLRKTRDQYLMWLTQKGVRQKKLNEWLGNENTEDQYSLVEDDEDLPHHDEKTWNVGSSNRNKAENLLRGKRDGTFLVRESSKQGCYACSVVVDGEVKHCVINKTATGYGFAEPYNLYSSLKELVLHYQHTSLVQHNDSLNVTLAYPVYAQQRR
How it was run: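 Radiometric read-out: 33P-labelled PIP3 product captured on WGA SPA beads and counted, with IC50 fitted from percent activity relative to DMSO control. Enzyme (3.4 nM) was incubated 120 min at room temperature with 20 μM PIP2 and 2 μM ATP at pH 6.7, 2% DMSO.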

[2] = test system: Phosphorylated Ribosomal Protein S6 (RPS6) in THP-1 cells; experiment: THP-1 RPS6 ELISA Assay; type: cell-based; conditions: Homo sapiens; serum starved THP-1 cells, 2 hours with compound, 10 nM MCP-1 for 15 minutes, Phospho-RPS6 ELISA; read-out: PI3Kγ_THP1_RPS6_ELISA IC50
How it was run: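 Phospho-RPS6 in lysates measured by ELISA at 450 nm, corrected at 540 nm, after MCP-1 challenge (10 nM, 15 min) of THP-1 cells that were starved overnight and exposed to test compound for 2 h at 37° C, 2×10^5 cells/well. Curve fit of percent inhibition gives IC50.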

[3] = target: PI3Kγ (p110γ) Recombinant Human Protein (Homo sapiens (Human), UniProt P48736); experiment: PI3K-γ Scintillation Proximity Assay; type: biochemical; conditions: 20 μM PIP2, 2 μM ATP, 13 nM PI3Kγ, 120 min, room temperature
Sequence of PI3Kγ (p110γ) Recombinant Human Protein (P48736 whole entry): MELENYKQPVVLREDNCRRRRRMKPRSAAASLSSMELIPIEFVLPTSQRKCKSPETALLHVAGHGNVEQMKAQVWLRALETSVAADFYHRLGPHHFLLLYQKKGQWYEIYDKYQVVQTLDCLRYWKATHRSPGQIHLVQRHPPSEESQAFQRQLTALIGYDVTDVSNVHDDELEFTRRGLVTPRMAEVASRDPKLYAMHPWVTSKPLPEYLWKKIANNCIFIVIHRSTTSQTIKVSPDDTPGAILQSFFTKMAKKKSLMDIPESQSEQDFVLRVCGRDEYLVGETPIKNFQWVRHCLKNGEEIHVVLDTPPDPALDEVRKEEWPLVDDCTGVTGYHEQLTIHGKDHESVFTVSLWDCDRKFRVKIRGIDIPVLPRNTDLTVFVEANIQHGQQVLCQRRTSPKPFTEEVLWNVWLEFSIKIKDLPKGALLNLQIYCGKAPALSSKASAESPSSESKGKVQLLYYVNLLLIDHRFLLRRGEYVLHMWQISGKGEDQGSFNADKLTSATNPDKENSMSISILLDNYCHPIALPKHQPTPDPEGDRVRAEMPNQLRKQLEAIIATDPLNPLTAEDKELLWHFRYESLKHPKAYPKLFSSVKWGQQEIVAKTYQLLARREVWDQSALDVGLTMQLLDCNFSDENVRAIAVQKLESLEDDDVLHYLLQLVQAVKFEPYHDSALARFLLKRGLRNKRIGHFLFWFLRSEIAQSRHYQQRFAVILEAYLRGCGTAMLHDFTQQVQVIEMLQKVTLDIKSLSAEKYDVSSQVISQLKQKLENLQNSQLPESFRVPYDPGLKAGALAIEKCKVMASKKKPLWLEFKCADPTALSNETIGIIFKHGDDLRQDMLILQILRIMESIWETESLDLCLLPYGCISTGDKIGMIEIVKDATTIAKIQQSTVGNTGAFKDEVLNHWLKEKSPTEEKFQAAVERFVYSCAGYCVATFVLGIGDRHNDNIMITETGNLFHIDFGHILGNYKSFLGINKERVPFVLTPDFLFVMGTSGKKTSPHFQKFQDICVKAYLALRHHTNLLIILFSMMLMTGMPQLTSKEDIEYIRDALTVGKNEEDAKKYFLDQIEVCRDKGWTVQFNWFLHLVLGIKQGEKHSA
How it was run: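 Recombinant human p110γ (13 nM) phosphorylated 20 μM PIP2 with 2 μM ATP plus [γ-33P]ATP in 20 mM MOPS pH 6.7, 10 mM MgCl2, 5 mM DTT, 0.03% CHAPS, 2% DMSO, 120 min at room temperature. Radiolabelled product was captured on WGA SPA beads and counted. IC50 came from curves of percent solvent-control activity.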

Structure (SMILES) | IC50 [1] [nM] | IC50 [2] [nM] | IC50 [3] [nM]
Cc1ncc(-c2nc(-c3cc(S(=O)(=O)NC45CC(CO)(C4)C5)ccc3C)cnc2N)s1 [Example 3, 3-(5-Amino-6-(2-methylthiazol-5-yl)pyrazin-2-yl)-N-(3-(hydroxymethyl)bicyclo[1.1.1]pentan-1-yl)-4-methylbenzenesulfonamide trifluoroacetate salt] | ≤ 100 | ≤ 100 | ≤ 100
[2H]C([2H])([2H])c1ccc(S(=O)(=O)NC23CCC(C#N)(C2)C3)cc1-c1cnc(N)c(-c2cnc(N(C)C)nc2)n1 [Example 67, 3-(5-Amino-6-(2-(dimethylamino)pyrimidin-5-yl)pyrazin-2-yl)-N-(4-cyanobicyclo[2.1.1]hexan-1-yl)-4-(methyl-d3)benzenesulfonamide trifluoroacetate salt] | ≤ 500 | ≤ 100 | ≤ 100
Cc1ccc(S(=O)(=O)NC23CCC(C#N)(C2)C3)cc1-c1cnc(N)c(-c2cn(C)nc2C)n1 [Example 11, 3-(5-Amino-6-(1,3-dimethyl-1H-pyrazol-4-yl)pyrazin-2-yl)-N-(4-cyanobicyclo[2.1.1]hexan-1-yl)-4-methylbenzensulfonamide trifluoroacetate salt] | ≤ 500 | ≤ 500 | ≤ 100
Cc1ccc(S(=O)(=O)NC23COC(CO)(C2)C3)cc1-c1cnc(N)c(-c2cnc(C3CC3)s2)c1 [Example 89, 3-(6-amino-5-(2-cyclopropylthiazol-5-yl)pyridin-3-yl)-N-(1-(hydroxymethyl)-2-oxabicyclo[2.1.1]hexan-4-yl)-4-methylbenzenesulfonamide] | ≤ 500 | ≤ 100 | ≤ 100
Cc1ncc(-c2nc(-c3cc(S(=O)(=O)NC45COC(CO)(C4)C5)ccc3C)cnc2N)s1 [Example 4, 3-(5-Amino-6-(2-methylthiazol-5-yl)pyrazin-2-yl)-N-(1-(hydroxymethyl)-2-oxabicyclo[2.1.1]hexan-4-yl)-4-methylbenzenesulfonamide trifluoroacetate salt] | ≤ 100 | ≤ 100 | ≤ 100
[2H]C([2H])([2H])c1ccc(S(=O)(=O)NC23CCC(C#N)(C2)C3)cc1-c1cnc(N)c(-c2cnc(C)o2)n1 [Example 66, 3-(5-Amino-6-(2-methyloxazol-5-yl)pyrazin-2-yl)-N-(4-cyanobicyclo[2.1.1]hexan-1-yl)-4-(methyl-d3)benzenesulfonamide trifluoroacetate salt] | ≤ 100 | ≤ 100 | ≤ 100
[2H]C([2H])([2H])c1ccc(S(=O)(=O)NC23CC(C#N)(C2)C3)cc1-c1cnc(N)c(-n2nccn2)n1 [Example 50, 3-(5-Amino-6-(2H-1,2,3-triazol-2-yl)pyrazin-2-yl)-N-(3-cyanobicyclo[1.1.1]pentan-1-yl)-4-(methyl-d3)benzenesulfonamide Trifluoroacetate Salt] | ≤ 100 | ≤ 500 | ≤ 100
[2H]C([2H])([2H])c1ccc(S(=O)(=O)NC23CCC(C#N)(C2)C3)cc1-c1cnc(N)c(-c2ccncn2)n1 [Example 72, 3-(5-Amino-6-(pyrimidin-4-yl)pyrazin-2-yl)-N-(4-cyanobicyclo[2.1.1]hexan-1-yl)-4-(methyl-d3)benzenesulfonamide trifluoroacetate salt] | ≤ 100 | ≤ 100 | ≤ 100
Cc1ccc(S(=O)(=O)NC23CCC(O)(CC2)C3)cc1-c1cnc(N)c(-c2cccnc2)n1 [Example 16, 3-(5-Amino-6-(pyridin-3-yl)pyrazin-2-yl)-N-(4-hydroxybicyclo[2.2.1]heptan-1-yl)-4-methylbenzenesulfonamide Trifluoroacetate Salt] | ≤ 100 | ≤ 500 | ≤ 100
[2H]C([2H])([2H])c1ccc(S(=O)(=O)NC23CCC(O)(C2)C3)cc1-c1cnc(N)c(-c2ccncn2)n1 [Example 80, 3-(5-Amino-6-(pyrimidin-4-yl)pyrazin-2-yl)-N-(4-hydroxybicyclo[2.1.1]hexan-1-yl)-4-(methyl-d3)benzenesulfonamide trifluoroacetate salt] | ≤ 100 | ≤ 100 | ≤ 100
[2H]C([2H])([2H])c1ccc(S(=O)(=O)NC23CCC(O)(C2)C3)cc1-c1cnc(N)c(-c2cnco2)n1 [Example 74, 3-(5-Amino-6-(oxazol-5-yl)pyrazin-2-yl)-N-(4-hydroxybicyclo[2.1.1]hexan-1-yl)-4-(methyl-d3)benzenesulfonamide trifluoroacetate salt] | ≤ 500 | ≤ 100 | ≤ 100
[2H]C([2H])([2H])c1ccc(S(=O)(=O)NC23CCC(O)(CC2)C3)cc1-c1cnc(N)c(-n2cncn2)n1 [Example 47, 3-(5-Amino-6-(1H-1,2,4-triazol-1-yl)pyrazin-2-yl)-N-(4-hydroxybicyclo[2.2.1]heptan-1-yl)-4-(methyl-d3)benzenesulfonamide Trifluoroacetate Salt] | ≤ 100 | ≤ 100 | ≤ 100
Cc1ncc(-c2nc(-c3cc(S(=O)(=O)NC45COC(CO)(C4)C5)cc(F)c3C)cnc2N)s1 [Example 9, 3-(5-Amino-6-(2-methylthiazol-5-yl)pyrazin-2-yl)-5-fluoro-N-(1-(hydroxymethyl)-2-oxabicyclo[2.1.1]hexan-4-yl)-4-methylbenzenesulfonamide trifluoroacetate Salt] | ≤ 100 | ≤ 100 | ≤ 100
Cc1ncc(-c2cc(-c3cc(S(=O)(=O)NC45COC(CO)(C4)C5)ccc3C)cnc2N)s1 [Example 86, 3-(6-amino-5-(2-methylthiazol-5-yl)pyridin-3-yl)-N-(1-(hydroxymethyl)-2-oxabicyclo[2.1.1]hexan-4-yl)-4-methylbenzenesulfonamide] | ≤ 500 | ≤ 500 | ≤ 100
Cc1ncc(-c2nc(-c3cc(S(=O)(=O)NC45CCC(CO)(CC4)OC5)ccc3C)cnc2N)s1 [Example 6, 3-(5-Amino-6-(2-methylthiazol-5-yl)pyrazin-2-yl)-N-(1-(hydroxymethyl)-2-oxabicyclo[2.2.2]octan-4-yl)-4-methylbenzenesulfonamide trifluoroacetate salt] | ≤ 100 | ≤ 100 | ≤ 100
Cc1ncc(-c2nc(-c3cc(S(=O)(=O)NC45CCC(CO)(C4)C5)ccc3C)cnc2N)s1 [Example 5, 3-(5-Amino-6-(2-methylthiazol-5-yl)pyrazin-2-yl)-N-(4-(hydroxymethyl)bicyclo[2.1.1]hexan-1-yl)-4-methylbenzenesulfonamide trifluoroacetate salt] | ≤ 100 | ≤ 100 | ≤ 100
[2H]C([2H])([2H])c1ccc(S(=O)(=O)NC23CC(C#N)(C2)C3)cc1-c1cnc(N)c(-n2cncn2)n1 [Example 48, 3-(5-Amino-6-(1H-1,2,4-triazol-1-yl)pyrazin-2-yl)-N-(3-cyanobicyclo[1.1.1]pentan-1-yl)-4-(methyl-d3)benzenesulfonamide Trifluoroacetate Salt] | ≤ 500 | ≤ 100 | ≤ 100
Cc1ccc(S(=O)(=O)NC23CCC(O)(C2)C3)cc1-c1cnc(N)c(-n2cncn2)n1 [Example 30, 3-(5-Amino-6-(1H-1,2,4-triazol-1-yl)pyrazin-2-yl)-N-(4-hydroxybicyclo[2.1.1]hexan-1-yl)-4-methylbenzenesulfonamide Trifluoroacetate Salt] | ≤ 500 | ≤ 500 | ≤ 100
Cc1ncc(-c2nc(-c3cc(S(=O)(=O)NC45CC(C#N)(C4)C5)ccc3C)cnc2N)s1 [Example 1, 3-(5-Amino-6-(2-methylthiazol-5-yl)pyrazin-2-yl)-N-(3-cyanobicyclo[1.1.1]pentan-1-yl)-4-methylbenzenesulfonamide Trifluoroacetate Salt] | ≤ 100 | ≤ 100 | ≤ 100
[2H]C([2H])([2H])c1ccc(S(=O)(=O)NC23CCN(CC2)C3)cc1-c1cnc(N)c(-n2cncn2)n1 [Example 90, 3-(5-amino-6-(1H-1,2,4-triazol-1-yl)pyrazin-2-yl)-N-(1-azabicyclo[2.2.1]heptan-4-yl)-4-(methyl-d3)benzenesulfonamide] | ≤ 100 | ≤ 100 | ≤ 100
Cc1ccc(S(=O)(=O)NC23CCC(CO)(CC2)OC3)cc1-c1cnc(N)c(-c2ccnc(C#N)c2)n1 [Example 19, 3-(5-Amino-6-(2-cyanopyridin-4-yl)pyrazin-2-yl)-N-(1-(hydroxymethyl)-2-oxabicyclo[2.2.2]octan-4-yl)-4-methylbenzenesulfonamide trifluoroacetate salt] | ≤ 100 | ≤ 1000 | ≤ 100
[2H]C([2H])([2H])c1ccc(S(=O)(=O)NC23CC(C#N)(C2)C3)cc1-c1cnc(N)c(-c2ccnc(SC)n2)n1 [Example 76, 3-(5-Amino-6-(2-(methylthio)pyrimidin-4-yl)pyrazin-2-yl)-N-(3-cyanobicyclo[1.1.1]pentan-1-yl)-4-(methyl-d3)benzenesulfonamide] | ≤ 100 | ≤ 100 | ≤ 100
